From PubChem BioAssay AID330 (DTP/NCI, 2004)
“And” between values parts separate entries of the source, which are not always exact repeats. Equal entries are not always repeated. Inconclusive results and toxic doses are left out.

Test system: P388 leukemia ip, CD2F1 mice, survival T/C
Assay: NCI In Vivo Anticancer Drug Screen. Data for tumor model P388 Leukemia (intraperitoneal) in CD2F1 (CDF1) mice
Details: endpoint: median survival time, higher = longer survival
In short: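 Mice carrying the transplanted tumor received test compound or vehicle. Survival was recorded in each group, and the value is the treated-group measurement divided by that of the vehicle-treated control group.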

[1] = dose: 60.0 mg/kg/injection, schedule: Q01DX005 (ip), vehicle: saline with Tween-80
[2] = dose: 120.0 mg/kg/injection, schedule: Q01DX005 (ip), vehicle: saline with Tween-80
[3] = dose: 240.0 mg/kg/injection, schedule: Q01DX005 (ip), vehicle: saline with Tween-80
[4] = dose: 100.0 mg/kg/injection, schedule: Q01DX009 (ip), vehicle: saline
[5] = dose: 200.0 mg/kg/injection, schedule: Q01DX009 (ip), vehicle: saline
[6] = dose: 50.0 mg/kg/injection, schedule: Q01DX005 (ip), vehicle: Klucel (hydroxypropylcellulose) (HPC)
[7] = dose: 100.0 mg/kg/injection, schedule: Q01DX005 (ip), vehicle: Klucel (hydroxypropylcellulose) (HPC)
[8] = dose: 200.0 mg/kg/injection, schedule: Q01DX005 (ip), vehicle: Klucel (hydroxypropylcellulose) (HPC)
[9] = dose: 60.0 mg/kg/injection, schedule: Q01DX005 (ip), vehicle: Klucel (hydroxypropylcellulose) (HPC)
[10] = dose: 120.0 mg/kg/injection, schedule: Q01DX005 (ip), vehicle: Klucel (hydroxypropylcellulose) (HPC)
[11] = dose: 240.0 mg/kg/injection, schedule: Q01DX005 (ip), vehicle: Klucel (hydroxypropylcellulose) (HPC)
[12] = dose: 25.0 mg/kg/injection, schedule: Q04DX003 (ip), vehicle: saline with Tween-80
[13] = dose: 50.0 mg/kg/injection, schedule: Q04DX003 (ip), vehicle: saline with Tween-80

`CC(C)CC(N)C(=O)NCCC(=O)O` (stereo unspecified) was tested, and the T/C (dose: 50.0 mg/kg/injection, schedule: Q01DX005 (ip), vehicle: saline) was 101 % of control, the T/C (dose: 100.0 mg/kg/injection, schedule: Q01DX005 (ip), vehicle: saline) was 101 % of control and the T/C (dose: 200.0 mg/kg/injection, schedule: Q01DX005 (ip), vehicle: saline) was 100 % of control.

In the case of `N#CC(OC(OC(C#N)c1ccccc1)c1ccccc1)c1ccccc1` (stereo unspecified), the T/C [1] is reported as 98 % of control, the T/C [2] is reported as 94 % of control and the T/C [3] is reported as 89 % of control.

For `C[S+](C)C`, the T/C [4] was 110 % of control, the T/C [5] was 110 % of control and the T/C (dose: 400.0 mg/kg/injection, schedule: Q01DX009 (ip), vehicle: saline) was 110 % of control.

With `C=C(C)C1CC=C(C)/C(=N/NC(=O)c2cccnc2)C1` (stereo unspecified) the T/C [6] was 116 % of control, the T/C [7] was 101 % of control and the T/C [8] was 109 % of control.

For `CCN1C(=O)NC(=O)C(C)(N2CCCCC2)C1=O` (stereo unspecified), the T/C [6] was 108 % of control, the T/C [7] was 103 % of control and the T/C [8] was 100 % of control.

For `COc1ccc(C2SCC(=O)N2c2nncs2)cc1F` (stereo unspecified), the T/C [9] was 92 % of control, the T/C [10] was 96 % of control and the T/C [11] was 92 % of control.

For `CS(=O)(=O)N1C2CC3CCCCC3CC21` (stereo unspecified), the T/C (dose: 25.0 mg/kg/injection, schedule: Q04DX002 (ip), vehicle: saline with Tween-80) was 99 % of control, the T/C (dose: 50.0 mg/kg/injection, schedule: Q04DX002 (ip), vehicle: saline with Tween-80) was 99 % of control and the T/C (dose: 100.0 mg/kg/injection, schedule: Q04DX002 (ip), vehicle: saline with Tween-80) was 105 % of control and 110 % of control. For the same molecule, the T/C (dose: 200.0 mg/kg/injection, schedule: Q04DX002 (ip), vehicle: saline with Tween-80) was 112 % of control and the T/C (dose: 400.0 mg/kg/injection, schedule: Q04DX002 (ip), vehicle: saline with Tween-80) was 112 % of control.

With `CNC(C)C1(O)Cc2c(O)c3c(c(O)c2C(OC2CC(N)C(O)C(C)O2)C1)C(=O)c1c(OC)cccc1C3=O` (stereo unspecified) the T/C (dose: 4.0 mg/kg/injection, schedule: Q01DX009 (ip), vehicle: water) was 150 % of control, the T/C (dose: 8.0 mg/kg/injection, schedule: Q01DX009 (ip), vehicle: water) was 157 % of control and 161 % of control and the T/C (dose: 16.0 mg/kg/injection, schedule: Q01DX009 (ip), vehicle: water) was 95 % of control.

With `CC1(C)SC(C)(c2ccsc2)N(c2nccs2)C1=O` (stereo unspecified) the T/C [9] was 97 % of control, the T/C [10] was 96 % of control and the T/C [11] was 94 % of control.

With `Cc1nc(N)nc(N)c1-c1ccc(Cl)c(Cl)c1` the T/C (dose: 1.0 mg/kg/injection, schedule: Q01DX009 (ip), vehicle: saline) was 109 % of control, the T/C (dose: 2.0 mg/kg/injection, schedule: Q01DX009 (ip), vehicle: saline) was 123 % of control and the T/C (dose: 3.0 mg/kg/injection, schedule: Q01DX009 (ip), vehicle: saline with Tween-80) was 163 % of control. The T/C (dose: 4.0 mg/kg/injection, schedule: Q01DX009 (ip), vehicle: saline) was 98 % of control, the T/C (dose: 4.0 mg/kg/injection, schedule: Q04DX002 (ip), vehicle: saline with Tween-80) was 104 % of control and the T/C (dose: 6.0 mg/kg/injection, schedule: Q01DX009 (ip), vehicle: saline with Tween-80) was 86 % of control. The T/C (dose: 6.0 mg/kg/injection, schedule: Q04DX002 (ip), vehicle: saline with Tween-80) was 104 % of control, the T/C (dose: 6.25 mg/kg/injection, schedule: Q04DX003 (ip), vehicle: saline with Tween-80) was 120 % of control and the T/C (dose: 8.0 mg/kg/injection, schedule: Q01DX009 (ip), vehicle: saline) was 98 % of control. For the same molecule, the T/C (dose: 8.0 mg/kg/injection, schedule: Q04DX002 (ip), vehicle: saline with Tween-80) was 99 % of control, the T/C (dose: 10.0 mg/kg/injection, schedule: Q04DX002 (ip), vehicle: saline with Tween-80) was 107 % of control and the T/C (dose: 12.0 mg/kg/injection, schedule: Q04DX002 (ip), vehicle: saline with Tween-80) was 123 % of control. The T/C (dose: 20.0 mg/kg/injection, schedule: Q04DX002 (ip), vehicle: saline) was 99 % of control, the T/C [12] was 155 % of control and the T/C (dose: 30.0 mg/kg/injection, schedule: Q04DX002 (ip), vehicle: saline) was 107 % of control. For the same molecule, the T/C (dose: 40.0 mg/kg/injection, schedule: Q04DX002 (ip), vehicle: saline) was 119 % of control.

For `CC(C)CCCC(C)C1CCC2C3CCC4CC(OS(C)(=O)=O)CCC4(C)C3CCC12C` (stereo unspecified), the T/C (dose: 50.0 mg/kg/injection, schedule: Q01DX009 (ip), vehicle: Klucel (hydroxypropylcellulose) (HPC)) was 96 % of control, the T/C (dose: 100.0 mg/kg/injection, schedule: Q01DX009 (ip), vehicle: Klucel (hydroxypropylcellulose) (HPC)) was 106 % of control and the T/C (dose: 200.0 mg/kg/injection, schedule: Q01DX009 (ip), vehicle: Klucel (hydroxypropylcellulose) (HPC)) was 103 % of control.

With `Cc1nc(Br)c(C(O)c2ccccc2)n1C` (stereo unspecified) the T/C [1] was 103 % of control, the T/C [2] was 92 % of control and the T/C [3] was 97 % of control.

With `CC(=O)O.[Pb]` the T/C [12] was 100 % of control, the T/C [13] was 100 % of control and the T/C (dose: 100.0 mg/kg/injection, schedule: Q04DX003 (ip), vehicle: saline) was 91 % of control.

In the case of `CC(=N\O)/C(C)=N/O.CC(=N\O)/C(C)=N/O.CCCC1CC[N-]CC1.CCCC1CC[N-]CC1.CCCC1CC[N-]CC1.CCCC1CC[N-]CC1.[Cl-].[Cl-].[Cl][Rh][Cl].[Rh+3]`, the T/C (dose: 2.78 mg/kg/injection, schedule: Q01DX009 (ip), vehicle: saline with Tween-80) is reported as 120 % of control.

In the case of `COc1ccc2c(c1)no[n+]2[O-]`, the T/C (dose: 100.0 mg/kg/injection, schedule: Q04DX002 (ip), vehicle: saline) is reported as 93 % of control, the T/C (dose: 200.0 mg/kg/injection, schedule: Q04DX002 (ip), vehicle: saline) is reported as 92 % of control and the T/C (dose: 400.0 mg/kg/injection, schedule: Q04DX002 (ip), vehicle: saline) is reported as 99 % of control.

For `COc1cc(NCC2COc3c(ccc(OC)c3OC)C2=O)c([N+](=O)[O-])cc1OC` (stereo unspecified), the T/C [9] was 90 % of control, the T/C [10] was 92 % of control and the T/C [11] was 86 % of control.

`ClC=P(c1ccccc1)(c1ccccc1)c1ccccc1` was tested, and the T/C [13] was 104 % of control, the T/C (dose: 100.0 mg/kg/injection, schedule: Q04DX003 (ip), vehicle: saline with Tween-80) was 109 % of control and the T/C (dose: 200.0 mg/kg/injection, schedule: Q04DX003 (ip), vehicle: saline with Tween-80) was 104 % of control.

With `CC1=CC2=C(C#N)C(=O)OC2(C)C(c2ccccc2)C1` (stereo unspecified) the T/C [1] was 100 % of control, the T/C [2] was 101 % of control and the T/C [3] was 100 % of control.

For `COC(=O)COc1cc2c(cc1C(C)c1ccc(OCc3ccccc3)cc1)OCO2` (stereo unspecified), the T/C (dose: 50.0 mg/kg/injection, schedule: Q01DX005 (ip), vehicle: distilled water + Tween-80) was 89 % of control, the T/C (dose: 100.0 mg/kg/injection, schedule: Q01DX005 (ip), vehicle: distilled water + Tween-80) was 99 % of control and the T/C (dose: 200.0 mg/kg/injection, schedule: Q01DX005 (ip), vehicle: distilled water + Tween-80) was 106 % of control and 88 % of control.

In the case of `CSCCC(O)C(NC(=O)CCl)C(=O)O` (stereo unspecified), the T/C (dose: 50.0 mg/kg/injection, schedule: Q01DX009 (ip), vehicle: saline) is reported as 89 % of control and 96 % of control, the T/C [4] is reported as 98 % of control and 102 % of control and the T/C [5] is reported as 93 % of control and 95 % of control.

In the case of `CCCCCn1cc[nH]c1=S`, the T/C (dose: 12.5 mg/kg/injection, schedule: Q01DX005 (ip), vehicle: Klucel (hydroxypropylcellulose) (HPC)) is reported as 101 % of control, the T/C (dose: 25.0 mg/kg/injection, schedule: Q01DX005 (ip), vehicle: Klucel (hydroxypropylcellulose) (HPC)) is reported as 104 % of control and the T/C [6] is reported as 100 % of control and 101 % of control. The T/C [7] was 104 % of control and the T/C [8] was 110 % of control.

With `O=CC(=C\c1cccs1)/C(C=O)=C\c1cccs1` the T/C (dose: 12.5 mg/kg/injection, schedule: Q01DX005 (ip), vehicle: saline with Tween-80) was 107 % of control, the T/C (dose: 25.0 mg/kg/injection, schedule: Q01DX005 (ip), vehicle: saline with Tween-80) was 108 % of control and the T/C (dose: 50.0 mg/kg/injection, schedule: Q01DX005 (ip), vehicle: saline with Tween-80) was 108 % of control and 114 % of control. For the same molecule, the T/C (dose: 100.0 mg/kg/injection, schedule: Q01DX005 (ip), vehicle: saline with Tween-80) was 109 % of control.

With `C[CH2][Sn]1([CH2]C)[O]C2C(OC)OC3COC(c4ccccc4)OC3C2[O]1` (stereo unspecified) the T/C (dose: 1.56 mg/kg/injection, schedule: Q04DX003 (ip), vehicle: saline) was 101 % of control and 107 % of control, the T/C (dose: 3.12 mg/kg/injection, schedule: Q04DX003 (ip), vehicle: saline) was 104 % of control and 116 % of control and the T/C (dose: 6.25 mg/kg/injection, schedule: Q04DX003 (ip), vehicle: saline) was 101 % of control and 116 % of control and 117 % of control. For the same molecule, the T/C (dose: 12.5 mg/kg/injection, schedule: Q04DX003 (ip), vehicle: saline) was 104 % of control and 116 % of control.

For `CN1c2ccccc2Sc2c1n[nH]c2-c1ccccc1`, the T/C [9] was 104 % of control, the T/C [10] was 111 % of control and the T/C [11] was 119 % of control.

`N#CC(=Nc1cccc(F)c1)C1=C(O)c2ccccc2C1=O` was tested, and the T/C [1] was 100 % of control and the T/C [2] was 97 % of control.
